Experimental data published in PubChem BioAssay AID686920 (Broad Institute, 2013).
“And” between values parts separate entries of the source, which are not always exact repeats. Equal values may be shown once.

These molecules were tested on A673 NR0B1-luciferase reporter, viability-normalised luminescence (assay: NR0B1 reporter signal reduction in A673 cells – cell-based, luciferase luminescence, cherry-pick, EWS/Fli inhibitor project, dose response (AID 686920)).

Row | SMILES | AC35
1 | CC1OC(OC2CC(O)C3(CO)C4C(O)CC5(C)C(C6=CC(=O)OC6)CCC5(O)C4CCC3(O)C2)C(O)C(O)C1O (centres undefined) | 0.0738 µM
2 | C[C@@H]1CN([C@@H](C)CO)C(=O)c2cccc(N(C)C)c2O[C@@H]1CN(C)Cc1ccc(C(=O)Nc2ccccc2N)cc1 | 39.8 µM
3 | CCOc1ccc2nc(NC3=NC(c4ccc(OC)cc4)CC(=O)N3)nc(C)c2c1 (centres undefined) | 9.3 µM
4 | Cc1nn(Cc2ccccc2Cl)c2sc(C(=O)Nc3ccccc3N3CCOCC3)cc12 | 10.3 µM
5 | CC(C)NC(=O)N(C)C[C@@H]1Oc2cc(C#Cc3ccc(F)cc3)ccc2S(=O)(=O)N([C@H](C)CO)C[C@H]1C | 33.9 µM
6 | Cc1ccc(S(=O)(=O)Nc2ccc3c(c2)C(=O)N([C@@H](C)CO)C[C@@H](C)[C@H](CN(C)Cc2ccc(C(F)(F)F)cc2)OCCCC[C@H](C)O3)cc1 | 7.44 µM
7 | O=C1c2ccccc2C(=O)c2cc(N3CCCCC3)ccc21 | 2.65 µM
8 | C[C@@H]1CN([C@@H](C)CO)C(=O)c2cccc(NS(=O)(=O)c3ccc(F)cc3)c2O[C@@H]1CN(C)Cc1ccc(C(=O)Nc2ccccc2N)cc1 | 6.97 µM
9 | Nc1nc(N)c2cc(Sc3ccc4ccccc4c3)ccc2n1 | 2.1 µM
10 | C[C@H](O)C#Cc1ccc2c(c1)O[C@@H](CN(C)Cc1ccc(-c3ccccc3)cc1)[C@H](C)CN([C@@H](C)CO)S2(=O)=O | 6.15 µM and 8.6 µM
11 | COc1ccc(-c2sc3ccccc3c2-c2ccc(OCCN3CCCCC3)cc2)cc1 | 7.87 µM
12 | O=C(c1nnsc1S(=O)c1ccc(Cl)cc1)N1CCOCC1 (centres undefined) | 14.1 µM
13 | O=C1NC(=O)N(Cc2ccco2)C(=O)/C1=C/C=C/c1ccco1 | 6.32 µM
14 | Cc1cc(C)cc(C(=O)NC(=S)Nc2ccc(Cc3ccncc3)cc2)c1 | 7.99 µM
15 | CC(=O)OC1CC(OC2C(O)CC(OC3C(O)CC(OC4CCC5(C)C(CCC6C5CC(O)C5(C)C(C7=CC(=O)OC7)CCC65O)C4)OC3C)OC2C)OC(C)C1OC1OC(CO)C(O)C(O)C1O (centres undefined) | 0.225 µM
16 | COc1ccc(C=C2CCc3ccccc3C2=O)cc1 | 10.4 µM
17 | COc1ccc(/C=C2\SC(=O)N(CCCC(=O)Nc3ccc(C(=O)O)cc3)C2=O)cc1 | 0.504 µM
18 | C[C@H]1CN([C@@H](C)CO)S(=O)(=O)c2ccc(C#Cc3ccncc3)cc2O[C@@H]1CN(C)C(=O)Nc1ccc2c(c1)OCO2 | 10.1 µM
19 | Cc1c(-c2nc(-c3ccc(C(C)(C)C)cc3)no2)n(C)oc1=O | 35.5 µM
20 | C[C@@H]1CN([C@H](C)CO)C(=O)c2cc(C#CCN(C)C)cnc2O[C@H]1CN(C)Cc1ccc(-c2ccccc2)cc1 | 10.9 µM
21 | Nc1nc2cc3c(cc2cc1C(=O)NCCc1c[nH]c2ccccc12)OCO3 | 4.31 µM
22 | O=C(O)c1ccc(N/N=C/c2ccc3c(c2)OCO3)cc1 | 0.644 µM
23 | CCc1cccc2c(C(=O)CN3C(=O)NC4(CCCCC4)C3=O)c[nH]c12 | 14.1 µM
24 | C(=N\Nc1nc2ccccc2[nH]1)/c1ccccn1 | 5.58 µM

Row | SMILES | AC35
25 | CCN1/C(=C/C(C)=C/c2sc3ccccc3[n+]2CC)Sc2ccccc21 | 1.56 µM
26 | C=C1C(=O)C=C[C@]2(C)C[C@@H]3OC(=O)[C@](C)(O)[C@H]3C[C@@H]12 | 10.7 µM
27 | COc1cc(OC)cc(-c2cc3nc(C)c(CCC(=O)NCc4ccccc4)c(C)n3n2)c1 | 3.44 µM
28 | CN(C)c1ccc(C=c2c3ccccc3n3c2c2c([n+]3C)CCCC2)cc1 | 1.9 µM
29 | Cc1ccc(/C=N/Nc2ccnc3cc(Cl)ccc23)c(C)c1 | 15.3 µM
30 | O=c1[nH]c(/C=C2\C=Nc3ccccc32)c(O)n1Cc1ccccc1F | 4.21 µM
31 | CO[C@H]1CN(C)C(=O)c2cc(NC(=O)NC(C)C)ccc2OC[C@H](C)N(Cc2ccc(-c3ccccn3)cc2)C[C@@H]1C | 5.22 µM
32 | O=C(Nc1ccc(NC(=O)c2cc3ccccc3o2)cc1)c1ccc2c(c1)OCCO2 | 13.2 µM
33 | CC(=O)Nc1ccc(S(=O)(=O)Nc2ccc(N3CCCCC3)cc2)cc1 | 8.66 µM
34 | COc1ccc([Si](C)(C)[C@H]2[C@H](CCO)O[C@@]3(C(=O)N(c4ccccc4)c4ccccc43)[C@@H]2C)cc1 | 7.79 µM
35 | COc1cccc(O)c1CN1CCC(C(=O)Nc2ccc(-c3cccc(C)c3)cc2)CC1 | 29.1 µM
36 | COc1cc(/C=N/NS(=O)(=O)c2ccc(C)cc2)ccc1OCc1cccc(C(=O)O)c1 | 4.09 µM
37 | N#C[C@H]1[C@H](c2ccc(C#Cc3ccccc3F)cc2)[C@@H](CO)N1C(=O)C1CCOCC1 | 34 µM
38 | Cc1ccsc1/C=N/Nc1ccc(C(=O)O)cc1 | 3.1 µM
39 | Cc1ccc(S(=O)(=O)N(C)C[C@H]2Oc3c(cccc3N(C)C)C(=O)N([C@@H](C)CO)C[C@@H]2C)cc1 | 1.62 µM
40 | COc1ccc(OC)c(-c2nnc3n2N=C(c2ccc(OC)c(OC4CCCC4)c2)CS3)c1 | 12.6 µM
41 | COc1cc(/C=C/C(=O)/C=C(O)/C=C/c2ccc(O)c(OC)c2)ccc1O | 5.92 µM
42 | COc1ccc(C2=Nn3c(nnc3-c3ccccc3F)SC2)cc1OC1CCOC1 (centres undefined) | 4.37 µM
43 | N#C[C@H]1N[C@H](CO)[C@H]1c1ccc(C#Cc2ccccc2F)cc1 | 0.137 µM
44 | CCN(CC)c1ccc(C2NC(=O)c3ccccc3N2)cc1 (centres undefined) | 3.8 µM
45 | C[C@H](CO)N1C[C@H](C)[C@H](CN(C)Cc2ccc(Oc3ccccc3)cc2)Oc2ccc(NC(=O)Cn3cnnn3)cc2CC1=O | 33.2 µM
46 | O=C(O)c1cccc(N/N=C/c2ccc(OC(F)(F)F)cc2)c1 | 2.26 µM
47 | COC(=O)C[C@@H]1CC[C@@H]2[C@H](COc3ccc(NC(=O)c4ccccc4)cc3C(=O)N2C)O1 | 53.4 µM
48 | COc1cc(OC)cc(-c2cc3nc(C)c(CCC(=O)O)c(C)n3n2)c1 | 0.243 µM

Row | SMILES | AC35
49 | C[C@H](CO)N1C[C@H](C)[C@H](CN(C)CC2CCCCC2)Oc2ccc(NC(=O)CCCCCC(=O)Nc3ccccc3N)cc2CC1=O | 4.96 µM
50 | CCOc1cc(N2CCC(O)CC2)ccc1Nc1ncc2c(n1)N(C)c1ccccc1C(=O)N2C | 2.01 µM
51 | Cc1ccc(S(=O)(=O)N(C)C[C@@H]2Oc3cc(C#Cc4ccncc4)ccc3S(=O)(=O)N([C@@H](C)CO)C[C@H]2C)cc1 | 9.88 µM
52 | COc1cc(/C=N/NS(=O)(=O)c2ccc3ccccc3c2)ccc1OCc1ccc(C(=O)O)cc1 | 2.91 µM
53 | C[C@@H]1O[C@@H](O[C@@H]2C=C3CC[C@@H]4C(CC[C@]5(C)[C@@H](c6ccc(=O)oc6)CC[C@]45O)[C@@]3(C)CC2)[C@H](O)[C@H](O)[C@H]1O (some centres undefined) | < 0.03 µM
54 | COc1ccc(OC)c(-c2nnc3n2N=C(c2ccc(OC)c(OC4CCOC4)c2)CS3)c1 (centres undefined) | 6.56 µM
55 | CC(=O)c1ccc(N=C2C(=O)Nc3ccccc32)cc1 | 19.3 µM
56 | Cc1cccc(N2CCN(C3C(=O)Nc4ccccc4-n4nnnc43)CC2)c1C (centres undefined) | 9.29 µM
57 | CN(C)c1ccc(N=Nc2nc3ccccc3n2C)cc1 | 12.5 µM
58 | O=C(O)CN1C(=O)/C(=C\c2ccccc2OCc2ccc(Cl)cc2Cl)SC1=S | 13.7 µM
59 | O=C1Nc2cc(C(=O)NCCN3CCCCCC3)ccc2S/C1=C\c1ccccc1 | 11.6 µM
60 | CCCCCCCCNC(C)C(O)c1ccc(SC(C)C)cc1 (centres undefined) | 9.79 µM
61 | O=C(Nc1ccc(OC(=O)N2CCCCC2)cc1)N1CCOCC1 | 4.3 µM
62 | N#CC1=C(N)Oc2cc(N)ccc2C1c1cccc(Br)c1 (centres undefined) | 0.542 µM
63 | COC(=O)C1=C(C)N(Cc2ccccc2C(F)(F)F)C(=NCc2ccc(OC)cc2)NC1c1ccc(C(F)(F)F)cc1 (centres undefined) | 29.9 µM
64 | C[C@H]1CN([C@@H](C)CO)C(=O)Cc2cc(NC(=O)CCC(F)(F)F)ccc2O[C@H]1CN(C)Cc1ccc(C(=O)Nc2ccccc2N)cc1 | 6.66 µM
65 | O=c1c2ccccc2oc2ccc(C#CC3(O)CCCCC3)cc12 | 14.1 µM
66 | CN(C)c1ccc(/C=N/Nc2nc3ccccc3o2)cc1 | 5.35 µM
67 | O=C1C(=O)N(Cc2cccs2)c2ccccc21 | 17 µM
68 | COC(=O)Cc1[nH]n(-c2nc3ccccc3s2)c(=O)c1C(C)=Nc1ccc(C)cc1 | 0.17 µM
69 | C[C@H](CO)N1C[C@H](C)[C@H](CN(C)Cc2ccc(C(=O)Nc3ccccc3N)cc2)Oc2ccc(NS(=O)(=O)c3cccs3)cc2C1=O | 11.6 µM
70 | O=C(CCCN1C(=O)/C(=C/c2ccccc2Cl)SC1=S)NNC(=O)c1ccc(Cl)cc1 | 8.68 µM
71 | COc1ccc(NC(=O)N(C)[C@H]2C[C@H]3c4[nH]c5ccccc5c4CCN3C(=O)[C@H]2CO)cc1 | 12 µM
72 | O=C1C(=O)N(CCS(=O)(=O)c2ccccc2)c2ccc(Cl)cc21 | 12.2 µM

Row | SMILES | AC35
73 | N#C[C@@H]1[C@H](c2ccc(C#Cc3ccccc3F)cc2)[C@@H](CO)N1C(=O)c1cccnc1 | 5.46 µM
74 | Cc1[nH][nH]c(=O)c1C(c1c(C)[nH][nH]c1=O)c1cn(Cc2ccc(Cl)c(Cl)c2)c2ccccc12 | 4.99 µM
75 | O=C(C[C@@H]1C[C@H]2c3cc(NC(=O)CC4CC4)ccc3O[C@H]2[C@H](CO)O1)NCc1ccccc1F | 40.3 µM
76 | O=C1Nc2ccccc2C1=Nc1ccccc1-c1ccccc1 | 11.4 µM
77 | O=c1c(Cl)cc(Cl)nn1-c1ccccc1 | 8.95 µM
78 | N#CC1=C(N)Oc2cc(N)ccc2C1c1cccc(F)c1 (centres undefined) | 1.96 µM
79 | Cc1csc(NC(=O)CCc2c(C)nc3cc(-c4ccc(Cl)cc4)nn3c2C)n1 | 0.284 µM
80 | CC(C)(C)c1ccc(Oc2ccc(NC(=O)C3CC=CCC3C(=O)O)cc2)cc1 (centres undefined) | 40.5 µM
81 | O=C(Nc1nc(-c2ccc(F)c(F)c2)cs1)c1ccc(OCC2CCCO2)cc1 (centres undefined) | 30 µM
82 | O=C1Nc2ccccc2C1=Nc1ccc(Br)cc1 | 15.6 µM
83 | C[C@H](CO)N1C[C@H](C)[C@@H](CN(C)Cc2ccc(C(F)(F)F)cc2)OCCCC[C@H](C)Oc2ccc(NS(=O)(=O)c3ccc(F)cc3)cc2C1=O | 16.6 µM
84 | COC(=O)C[C@@H]1CC[C@@H]2[C@@H](COc3ccc(NC(=O)Nc4ccc(C#N)cc4)cc3C(=O)N2C)O1 | 56.2 µM
85 | COC(=O)C[C@H]1CC[C@H]2[C@H](COc3ccc(NC(=O)Nc4cccc(Cl)c4)cc3C(=O)N2C)O1 | 44.1 µM
86 | CCOc1ccc(N=C2C(=O)Nc3ccc(C)c(Br)c32)cc1 | 26.4 µM
87 | C[C@H]1CN([C@@H](C)CO)C(=O)Cc2cc(NC(=O)CCCCCC(=O)Nc3ccccc3N)ccc2O[C@H]1CN(C)Cc1ccc(Oc2ccccc2)cc1 | 5.63 µM
88 | CC(=NNc1ccc2ccccc2n1)c1ccccn1 | 0.597 µM
89 | Cc1ccc(C)c(S(=O)(=O)N2CCN(c3ncnc4sccc34)CC2)c1 | 3.63 µM
90 | O=C(NC[C@@H]1N[C@@H](CO)[C@H]1c1ccc(C2=CCCCC2)cc1)c1cccc(F)c1 | 29.8 µM
91 | O=C(CCCN1C(=O)/C(=C/c2ccccc2Cl)SC1=S)NNC(=O)c1ccc(Cl)cc1Cl | 3.4 µM
92 | C=C1C(=O)OC2C1CCC(C)C1(O)C=CC(=O)C21C (centres undefined) | 11.5 µM
93 | O=C(Sc1cccc2cccnc12)c1ccccc1Br | 16.6 µM
94 | COC(=O)Cc1ccc(NC(=O)c2ccccc2Cl)cc1 | 2.6 µM
